# Tests used:
# Staphylococcus aureus [1] = assay: Antibacterial activity against vancomycin-intermediate resistant Staphylococcus aureus clinical isolate after 24 hrs by broth microdilution method; format: functional
# [2] = Toxicity assessed as hemolysis in erythrocytes at 800 mg/L; format: cell-based, Erythrocyte; conditions: human, read-out: Activity
# Enterococcus faecium [3] = assay: Antibacterial activity against vancomycin A-resistant Enterococcus faecium clinical isolate after 24 hrs by broth microdilution method; format: functional; conditions: read-out: MIC
# [4] = Toxicity assessed as hemolysis in erythrocytes at 400 mg/L; format: cell-based, Erythrocyte; conditions: human, read-out: Activity
# Escherichia coli = assay: Antibacterial activity against Escherichia coli SKF-12140 after 24 hrs by broth microdilution method; format: functional; conditions: read-out: MIC
# Enterococcus faecium [5] = assay: Antibacterial activity against Enterococcus faecium after 24 hrs by broth microdilution method; format: functional; conditions: read-out: MIC
# Staphylococcus aureus [6] = assay: Antibacterial activity against methicillin-resistant and vancomycin-intermediate resistant Staphylococcus aureus clinical isolate after 24 hrs by broth microdilution method; format: functional; conditions: read-out: MIC
# Staphylococcus aureus [7] = assay: Antibacterial activity against Staphylococcus aureus Smith after 24 hrs by broth microdilution method; format: functional; conditions: read-out: MIC
# Enterococcus faecalis [8] = assay: Antibacterial activity against vancomycin-resistant Enterococcus faecalis in presence of 30% bovine serum after 24 hrs by broth microdilution method; format: functional
# Staphylococcus aureus [9] = assay: Antibacterial activity against methicillin-resistant Staphylococcus aureus clinical isolate after 24 hrs by broth microdilution method; format: functional; conditions: read-out: MIC
# [10] = Toxicity assessed as hemolysis in erythrocytes at 200 mg/L; format: cell-based, Erythrocyte; conditions: human, read-out: Activity
# Enterococcus faecalis [11] = assay: Antibacterial activity against Enterococcus faecalis after 24 hrs by broth microdilution method; format: functional; conditions: read-out: MIC
# [12] = Toxicity assessed as hemolysis in erythrocytes at 100 mg/L; format: cell-based, Erythrocyte; conditions: human, read-out: Activity
# Enterococcus faecium [13] = assay: Antibacterial activity against vancomycin A-resistant Enterococcus faecium clinical isolate in presence of 30% bovine serum after 24 hrs by broth microdilution method; format: functional
# Enterococcus faecalis [14] = assay: Antibacterial activity against vancomycin A-resistant Enterococcus faecalis after 24 hrs by broth microdilution method; format: functional; conditions: read-out: MIC
# [15] = Toxicity assessed as hemolysis in erythrocytes at 1600 mg/L; format: cell-based, Erythrocyte; conditions: human, read-out: Activity
# Streptococcus pyogenes = assay: Antibacterial activity against Streptococcus pyogenes C203 after 24 hrs by broth microdilution method; format: functional; conditions: C203, 24 h, read-out: MIC
# Staphylococcus aureus [16] = assay: Antibacterial activity against Staphylococcus aureus Smith in presence of 30% bovine serum after 24 hrs by broth microdilution method; format: functional
# Staphylococcus aureus [17] = assay: Antibacterial activity against vancomycin-intermediate resistant Staphylococcus aureus clinical isolate in presence of 30% bovine serum after 24 hrs by broth microdilution method; format: functional
# Candida albicans = assay: Antifungal activity against Candida albicans SKF-2270 after 24 hrs by broth microdilution method; format: functional; conditions: read-out: MIC
# [18] = Toxicity assessed as hemolysis in erythrocytes at 180 mg/L; format: cell-based, Erythrocyte; conditions: human, erythrocytes; read-out: Activity
# [19] = Toxicity assessed as hemolysis in erythrocytes at 90 mg/L; format: cell-based, Erythrocyte; conditions: human, erythrocytes; read-out: Activity
SMILES,MIC (Staphylococcus aureus [1]),hemolysis at 800 mg/L [2],MIC (Enterococcus faecium [3]),hemolysis at 400 mg/L [4],MIC (Escherichia coli),MIC (Enterococcus faecium [5]),MIC (Staphylococcus aureus [6]),MIC (Staphylococcus aureus [7]),MIC (Enterococcus faecalis [8]),MIC (Staphylococcus aureus [9]),hemolysis at 200 mg/L [10],MIC (Enterococcus faecalis [11]),hemolysis at 100 mg/L [12],MIC (Enterococcus faecium [13]),MIC (Enterococcus faecalis [14]),hemolysis at 1600 mg/L [15],MIC (Streptococcus pyogenes),MIC (Staphylococcus aureus [16]),MIC (Staphylococcus aureus [17]),MIC (Candida albicans),other results
Cc1ccccc1CC(=O)N[C@@H](CC(N)=O)C(=O)NC[C@@H]1C(=O)N[C@H](c2ccc(O)cc2)C(=O)N[C@H](CCCN)C(=O)N[C@H](C(C)C)C(=O)N[C@@H](c2ccc(O)cc2)C(=O)N[C@H](c2ccc(O)cc2)C(=O)N[C@@H]([C@@H](C)O)C(=O)N[C@@H](Cc2ccccc2)C(=O)N[C@H](CCCN)C(=O)N[C@@H](c2ccc(O[C@H]3O[C@H](CO)[C@@H](O)[C@H](O)[C@@H]3O[C@H]3O[C@H](CO)[C@@H](O)[C@H](O)[C@@H]3O)cc2)C(=O)N[C@H]([C@@H](C)O)C(=O)N[C@@H](c2ccc(O)cc2)C(=O)NCC(=O)N[C@@H](CC(C)C)C(=O)N[C@H](C)C(=O)N[C@@H](c2ccc(O)c(Cl)c2)C(=O)O[C@@H]1C(N)=O,1 µg/mL,2%,0.5 µg/mL,1%,> 128 µg/mL,0.5 µg/mL,2 µg/mL,≤ 0.125 µg/mL,0.5 µg/mL,≤ 0.125 µg/mL,1%,0.5 µg/mL,1%,1 µg/mL,0.25 µg/mL,5%,≤ 0.125 µg/mL,0.25 µg/mL,1 µg/mL,> 128 µg/mL,
CCCCC(CC)C(=O)N[C@@H](CC(N)=O)C(=O)NC[C@@H]1C(=O)N[C@H](c2ccc(O)cc2)C(=O)N[C@H](CCCN)C(=O)N[C@H](C(C)C)C(=O)N[C@@H](c2ccc(O)cc2)C(=O)N[C@H](c2ccc(O)cc2)C(=O)N[C@@H]([C@@H](C)O)C(=O)N[C@@H](Cc2ccccc2)C(=O)N[C@H](CCCN)C(=O)N[C@@H](c2ccc(O[C@H]3O[C@H](CO)[C@@H](O)[C@H](O)[C@@H]3O[C@H]3O[C@H](CO)[C@@H](O)[C@H](O)[C@@H]3O)cc2)C(=O)N[C@H]([C@@H](C)O)C(=O)N[C@@H](c2ccc(O)cc2)C(=O)NCC(=O)N[C@@H](CC(C)C)C(=O)N[C@H](C)C(=O)N[C@@H](c2ccc(O)c(Cl)c2)C(=O)O[C@@H]1C(N)=O (some centres undefined),1 µg/mL,73%,0.5 µg/mL,8%,> 128 µg/mL,0.5 µg/mL,2 µg/mL,0.25 µg/mL,1 µg/mL,0.25 µg/mL,4%,0.5 µg/mL,0%,1 µg/mL,0.25 µg/mL,83%,≤ 0.125 µg/mL,0.5 µg/mL,2 µg/mL,> 128 µg/mL,
CC(C)C[C@@H]1NC(=O)CNC(=O)[C@H](c2ccc(O)cc2)NC(=O)[C@@H]([C@@H](C)O)NC(=O)[C@H](c2ccc(O[C@H]3O[C@H](CO)[C@@H](O)[C@H](O)[C@@H]3O[C@H]3O[C@H](CO)[C@@H](O)[C@H](O)[C@@H]3O)cc2)NC(=O)[C@@H](CCCN)NC(=O)[C@H](Cc2ccccc2)NC(=O)[C@H]([C@@H](C)O)NC(=O)[C@@H](c2ccc(O)cc2)NC(=O)[C@H](c2ccc(O)cc2)NC(=O)[C@@H](C(C)C)NC(=O)[C@@H](CCCN)NC(=O)[C@@H](c2ccc(O)cc2)NC(=O)[C@@H](CNC(=O)[C@H](CC(N)=O)NC(=O)Cc2cccc3ccccc23)[C@@H](C(N)=O)OC(=O)[C@H](c2ccc(O)c(Cl)c2)NC(=O)[C@@H](C)NC1=O.Cl,0.25 µg/mL,98%,≤ 0.06 µg/mL,60%,> 128 µg/mL,0.125 µg/mL,2 µg/mL,≤ 0.06 µg/mL,0.25 µg/mL,≤ 0.06 µg/mL,30%,≤ 0.06 µg/mL,,0.5 µg/mL,≤ 0.06 µg/mL,,≤ 0.06 µg/mL,0.25 µg/mL,1 µg/mL,> 128 µg/mL,hemolysis at 180 mg/L [18]: 28%; hemolysis at 90 mg/L [19]: 15%
CC/C=C/C=C\CC(=O)N[C@@H](CC(N)=O)C(=O)NC[C@@H]1C(=O)N[C@H](c2ccc(O)cc2)C(=O)N[C@H](CCCN)C(=O)N[C@H](C(C)C)C(=O)N[C@@H](c2ccc(O)cc2)C(=O)N[C@H](c2ccc(O)cc2)C(=O)N[C@@H]([C@@H](C)O)C(=O)N[C@@H](Cc2ccccc2)C(=O)N[C@H](CCCN)C(=O)N[C@@H](c2ccc(O[C@H]3O[C@H](CO)[C@@H](O)[C@H](O)[C@@H]3O[C@H]3O[C@H](CO)[C@@H](O)[C@H](O)[C@@H]3O)cc2)C(=O)N[C@H]([C@@H](C)O)C(=O)N[C@@H](c2ccc(O)cc2)C(=O)NCC(=O)N[C@@H](CC(C)C)C(=O)N[C@H](C)C(=O)N[C@@H](c2ccc(O)c(Cl)c2)C(=O)O[C@@H]1C(N)=O,1 µg/mL,96%,0.25 µg/mL,51%,> 128 µg/mL,0.5 µg/mL,2 µg/mL,0.25 µg/mL,0.5 µg/mL,0.25 µg/mL,45%,0.5 µg/mL,38%,1 µg/mL,0.25 µg/mL,,≤ 0.125 µg/mL,0.5 µg/mL,2 µg/mL,> 128 µg/mL,
Cc1ccccc1C(=O)N[C@@H](CC(N)=O)C(=O)NC[C@@H]1C(=O)N[C@H](c2ccc(O)cc2)C(=O)N[C@H](CCCN)C(=O)N[C@H](C(C)C)C(=O)N[C@@H](c2ccc(O)cc2)C(=O)N[C@H](c2ccc(O)cc2)C(=O)N[C@@H]([C@@H](C)O)C(=O)N[C@@H](Cc2ccccc2)C(=O)N[C@H](CCCN)C(=O)N[C@@H](c2ccc(O[C@H]3O[C@H](CO)[C@@H](O)[C@H](O)[C@@H]3O[C@H]3O[C@H](CO)[C@@H](O)[C@H](O)[C@@H]3O)cc2)C(=O)N[C@H]([C@@H](C)O)C(=O)N[C@@H](c2ccc(O)cc2)C(=O)NCC(=O)N[C@@H](CC(C)C)C(=O)N[C@H](C)C(=O)N[C@@H](c2ccc(O)c(Cl)c2)C(=O)O[C@@H]1C(N)=O,8 µg/mL,94%,4 µg/mL,83%,> 128 µg/mL,2 µg/mL,8 µg/mL,1 µg/mL,2 µg/mL,1 µg/mL,17%,2 µg/mL,2%,≤ 0.125 µg/mL,2 µg/mL,93%,≤ 0.125 µg/mL,1 µg/mL,4 µg/mL,> 128 µg/mL,

# Reference: ChEMBL document CHEMBL1145390, “Synthesis and preliminary biological characterization of new semisynthetic derivatives of ramoplanin” (J Med Chem, 2007)
